A short description of test [1]: Blocker Index (BI), expert graders, isovaleric acid malodorous swatch. On the set-up: key: BI odor strength 0 (lowest, clean swatch) to 3 (highest). The text has this:
(§1) Blocker materials suitable for use in consumer products of the present invention are chosen for their ability to decrease malodor, while not interfering with perception of a fragrance. Material selection is done by assigning two indices to a test sample material from two reference scales in order to rank odor strengths. The two reference scales are the Fragrance Fidelity Index (FFI) scale and the Blocker Index (BI) scale. The FFI ranks the ability of the test sample material to impart a perceivable odor which could cause interference when combined with another fragrance and the BI ranks the ability of the test sample material to reduce malodor perception. The two methods for assigning the indices to a test sample on the FFI and the BI reference scales are given below.
The first step in the method for assigning a BI to a test sample material on the BI reference scale is to create the BI reference swatches. […] Fabric swatches for this test are white knit polycotton (4 inch×4 inch) swatches from EMC ordered as PC 50/50. The supplier is instructed to strip the swatches first, stripping involves washing twice with a fragrance-free detergent and rinsing three times.
The BI scale contains one clean swatch with no malodor applied. […] These solutions are pipetted to the middle of the swatches. […] After drying for 30 minutes in a vented hood, the swatches are wrapped in aluminum foil to prevent odor contamination to the treated swatch. A clean untreated swatch is also included as the lowest anchor point of reference for malodor strength on the BI scale. The BI reference scale swatches should be used within 0.5 to 12 hours and discarded after 12 hours. The swatches are used as scale anchor points when graders evaluate a test sample(s) and are assigned a Blocker Index (BI) as show in Table 12.
The perfumer/expert grader is asked to rank order swatches according to a scale between 0 and 3.
The reference swatches represent the 0, 1, 2, and 3 BIs on the BI reference scale, Table 12. The expert grader should familiarizes him/herself with the strength of the odor on the BI reference swatches by sniffing each one starting at 0 (the lowest odor strength) and ending at 3 (the highest odor strength). This should be done prior to evaluating the swatch treated with the test material.
To evaluate the BI, the test material is applied to a malodorous swatch to determine how well the test material blocks the malodor. […] After drying the malodorous swatch a known concentration of test material solution, between 1 ppm and 100 ppm is pipetted onto the malodorous swatch. […] It is sometimes necessary to evaluate several levels of the test material between about 1 and about 100 ppm to determine the BI.
At least two perfumers/expert graders are used to assign the BI to the test sample. […] The test sample swatch is assigned a BI at or between numbers on the BI in table.

Test [2] in a line: Fragrance Fidelity Index (FFI), expert graders, treated fabric swatch against ethyl vanillin reference scale.
Text: as §1
The first step in the method for assigning an FFI to the test samples on the FFI reference scale is to create the FFI reference swatches. […] Fabric swatches for this test are white knit polycotton (4 inch×4 inch) swatches from EMC ordered as PC 50/50. The supplier is instructed to strip the swatches first, stripping involves washing twice with a fragrance-free detergent and rinsing three times.
Pipette 13 μL of each of the three solutions into the middle of a clean swatch resulting in about a 1 cm diameter of the solution in the middle of the swatch. This will create a sensory scale of three swatches with three different odor levels based on the concentration of the solution pipetted onto the swatch. After drying for 30 minutes in a vented hood, the swatches are wrapped in aluminum foil to prevent odor contamination to the treated swatch. A clean untreated swatch is also included as the lowest anchor point of reference for odor strength on the FFI scale. The FFI reference scale swatches should be used within 0.5 to 12 hours and discarded after 12 hours. The swatches are used as scale anchor points when graders evaluate a test sample(s) and are assigned a Fragrance Fidelity Index (FFI) as show in Table 7.
The perfumer/expert panel is asked to rank order swatches according to a scale between 0 and 3.
The reference swatches represent the 0, 1, 2, and 3 FFIs on the FFI reference scale, Table 9. The expert grader should familiarize them self with the strength of the odor on the FFI reference swatches by sniffing each one starting at 0 (the lowest odor strength) and ending at 3 (the highest odor strength). This should be done prior to evaluating the test sample material treated swatch.
A clean swatch is treated with 13 μL of a known concentration of a test sample material resulting in an about 1 cm of the solution on the clean swatch. Just like the reference swatches, the test sample material swatch is dried in a vented hood for 30 minutes and then wrapped in aluminum foil to prevent contamination. […]

The mark [3] stands for this setting: test material Conc 10 ppm on isovaleric acid malodorous swatch.
Where [4] appears, read: test material Conc 50 ppm on isovaleric acid malodorous swatch.

With `O=C1CCC2CCCCC2O1` (stereo not drawn) [3,4,4a,5,6,7,8,8a-octahydrochromen-2-one], the BI in test [1] (setting [3]) and in test [1] (setting [4]) was 2.0 in each case.

`CC1CCC2(C(C)C)CC(C)OC2C1` (stereo not drawn) [4,8-dimethyl-1-(methylethyl)-7-oxybiciclo [4.3.0]nonane] came in with an FFI in test [2] (Conc 50 ppm) of 0.3. Besides, the BI in test [1] (Conc 10 ppm) worked out at 2.0; in test [1] (Conc 50 ppm), 2.2.

Regarding `CC(C)(C)C1CCCCC1` [4-tert-butyl cyclohexane], the BI in test [1] (setting [3]) and in test [1] (setting [4]) was 2.0 throughout.

Consider `CCC(=O)OC1CC2C3C=CCC3C1C2(C)C` (stereo not drawn) [8,8-dimethyl-3a,4,5,6,7,7a-hexahydro-1H-4,7-methanoinden-6-yl propionate], for which the FFI in test [2] (Conc 10 ppm) and in test [2] (Conc 50 ppm) was 0 throughout. The BI stood at 1.5 in test [1] (Conc 10 ppm) and 2.2 in test [1] (Conc 50 ppm).

In the case of `CCCCCCCCCCCCCCCC(=O)OC` [Material 109], the BI in test [1] (setting [3]) came to 2.0.

`CCCCCCCCCCCCO` [Material 174]: the BI in test [1] (setting [4]) is 2.3.

As for `CC(=O)OCCCCCCC(C)C` [Material 204], the BI amounted to 2.0 in test [1] (setting [3]) and 2.7 in test [1] (setting [4]).

As for `CC1(C)CCc2ccc(CCC=O)cc21` [Material 261, 3-(3,3-dimethyl-2,3-dihydro-1H-inden-5-yl)propanal], the FFI in test [2] (Conc 50 ppm) stood at 0.5. In addition, the BI is on record as 1.5 in test [1] (Conc 10 ppm) and 2.7 in test [1] (Conc 50 ppm).

`CC1(C)CCc2ccc(CCC=O)cc21` [Material 261]: the results for the BI in test [1] (setting [3]) and in test [1] (setting [4]) were 1.8 and 1.3, respectively.

In the case of `CC(=O)OC1CC2CC1C1CC=CC21` (stereo not drawn) [Material 281], the BI in test [1] (setting [3]) and in test [1] (setting [4]) was 2.0 in each case.

`CCCCCCCCCCCC(=O)OCC` [Material 391] showed a BI in test [1] (setting [4]) of 2.2.

Regarding `C=CC(C)=CCC=C(C)C` [Material 524], the BI in test [1] (setting [4]) is on record as 2.8.

Turning to `CCC(O)COC1CCCCC1C(C)(C)C` (stereo not drawn) [Material 677], the BI stood at 2.3 in test [1] (setting [3]) and 2.0 in test [1] (setting [4]).

Turning to `CC(CCO)CCc1ccccc1` (stereo not drawn) [Material 962], the BI in test [1] (setting [3]) is 2.3; in test [1] (setting [4]) it was 1.7.

The molecule `CCOC(=O)OC1C(C)CCC(C)C1C` (stereo not drawn) [Material 1005] displayed a BI in test [1] (setting [4]) of 2.6.

With `COC(=O)OC1CC/C=C\CCC1` (stereo not drawn) [Material 1139], the BI in test [1] (setting [3]) turned out to be 2.0; in test [1] (setting [4]), 2.7.

On to `C=C1CCC2OC2(C)CCC2C1CC2(C)C` (stereo not drawn) [Material 1148], for which, in test [1] (setting [4]), the BI was 2.3.

For the molecule `CC1(C)C2CCC3(C2)C1C(=O)CCC3(C)C` (stereo not drawn) [Material 1149], the BI amounted to 1.5 in test [1] (setting [3]) and 2.3 in test [1] (setting [4]).

Take `CCCCCCCCCCCO` [Undecanol]: the BI in test [1] (setting [4]) was determined as 2.3.

Turning to `CC(C)CC(=O)O` [isovaleric acid, reference compound], the “BI reference swatch grade, Ave” value in test [1] (2 μL 0.08% isovaleric acid, graders 1-5 (Table 10)) was determined as 1.0. Moreover, the “BI reference swatch grade, single expert grader” value in test [1] (stripped swatch with 2 μL 0.08% isovaleric acid) is recorded as 1.0; in test [1] (stripped swatch with 5 μL 0.08% isovaleric acid), 2.5; in test [1] (stripped swatch with 20 μL 0.08% isovaleric acid), 2.5.

Source of the values: US20160090557A1, “SUBSTRATES COMPRISING MALODOR REDUCTION COMPOSITIONS” (The Procter & Gamble Company, priority 2014, published 2016).
